The record followed here is the NIST ThermoML archive (doi:10.1016/j.jct.2011.04.018).

Numbers after ± are expanded uncertainties.

The first data set in a line: activity coefficient (dimensionless); of the first substance listed, at infinite dilution; xn = mol fraction of the nth substance listed. The note with it: 338.15 K; 101 kPa; Liquid; Chromatography; x1 = 0.
Take `c1ccccc1` [benzene] + O=S(=O)([N-]S(=O)(=O)C(F)(F)F)C(F)(F)F.OCCC[n+]1ccccc1: the activity coefficient amounted to 1.59 ± 0.11.
In the case of `CCCCO` [butan-1-ol] + O=S(=O)([N-]S(=O)(=O)C(F)(F)F)C(F)(F)F.OCCC[n+]1ccccc1, the activity coefficient came out at 2.02 ± 0.14.
Same read-out and setting: for `C1CCCCCC1` [cycloheptane] + O=S(=O)([N-]S(=O)(=O)C(F)(F)F)C(F)(F)F.OCCC[n+]1ccccc1 the value was 26.9 ± 1.8.
Still for that read-out and setting: for `C1CCCCC1` [cyclohexane] + O=S(=O)([N-]S(=O)(=O)C(F)(F)F)C(F)(F)F.OCCC[n+]1ccccc1 the value was 19.4 ± 1.3; for `C1=CCCCC1` [cyclohexene] + O=S(=O)([N-]S(=O)(=O)C(F)(F)F)C(F)(F)F.OCCC[n+]1ccccc1, 9.81 ± 0.67; for `C1CCCCCCC1` [cyclooctane] + O=S(=O)([N-]S(=O)(=O)C(F)(F)F)C(F)(F)F.OCCC[n+]1ccccc1, 37.3 ± 2.6.

The same data set, now with this note: 348.15 K; 101 kPa; Liquid; Chromatography; x1 = 0.
In the case of `Cc1ccccc1C` [1,2-dimethylbenzene] + O=S(=O)([N-]S(=O)(=O)C(F)(F)F)C(F)(F)F.OCCC[n+]1ccccc1, the activity coefficient came to 3.13 ± 0.21.
With `Cc1cccc(C)c1` [1,3-dimethylbenzene] + O=S(=O)([N-]S(=O)(=O)C(F)(F)F)C(F)(F)F.OCCC[n+]1ccccc1, the activity coefficient is 3.6 ± 0.25.
Same read-out and setting: for `Cc1ccc(C)cc1` [1,4-dimethylbenzene] + O=S(=O)([N-]S(=O)(=O)C(F)(F)F)C(F)(F)F.OCCC[n+]1ccccc1 the value was 3.62 ± 0.25; for `C1COCCO1` [1,4-dioxane] + O=S(=O)([N-]S(=O)(=O)C(F)(F)F)C(F)(F)F.OCCC[n+]1ccccc1, 0.595 ± 0.042; for `C=CCCCCCCCC` [1-decene] + O=S(=O)([N-]S(=O)(=O)C(F)(F)F)C(F)(F)F.OCCC[n+]1ccccc1, 95.2 ± 6.5.
The same measure, in the same setting: for `C=CCCCCC` [1-heptene] + O=S(=O)([N-]S(=O)(=O)C(F)(F)F)C(F)(F)F.OCCC[n+]1ccccc1 the value was 26.7 ± 1.8; for `C#CCCCCC` [1-heptyne] + O=S(=O)([N-]S(=O)(=O)C(F)(F)F)C(F)(F)F.OCCC[n+]1ccccc1, 9 ± 0.61.
Still for that read-out and setting: for `C#CCCCC` [1-hexyne] + O=S(=O)([N-]S(=O)(=O)C(F)(F)F)C(F)(F)F.OCCC[n+]1ccccc1 the value was 5.91 ± 0.4; for `C#CCCCCCC` [1-octyne] + O=S(=O)([N-]S(=O)(=O)C(F)(F)F)C(F)(F)F.OCCC[n+]1ccccc1, 13.7 ± 0.9.
`C=CCCC` [1-pentene] + O=S(=O)([N-]S(=O)(=O)C(F)(F)F)C(F)(F)F.OCCC[n+]1ccccc1: the activity coefficient came to 11.5 ± 0.8.
On the same count and under the same terms, for `CC(C)CC(C)(C)C` [2,2,4-trimethylpentane] + O=S(=O)([N-]S(=O)(=O)C(F)(F)F)C(F)(F)F.OCCC[n+]1ccccc1 the value was 55.7 ± 3.8; for `CCC(C)(C)C` [2,2-dimethylbutane] + O=S(=O)([N-]S(=O)(=O)C(F)(F)F)C(F)(F)F.OCCC[n+]1ccccc1, 28.5 ± 1.9; for `CCC(C)(C)OC` [2-methoxy-2-methylbutane] + O=S(=O)([N-]S(=O)(=O)C(F)(F)F)C(F)(F)F.OCCC[n+]1ccccc1, 4.7 ± 0.32.
With `COC(C)(C)C` [2-methoxy-2-methylpropane] + O=S(=O)([N-]S(=O)(=O)C(F)(F)F)C(F)(F)F.OCCC[n+]1ccccc1, the activity coefficient is 3.01 ± 0.2.
Turning to `CCC(C)CC` [3-methylpentane] + O=S(=O)([N-]S(=O)(=O)C(F)(F)F)C(F)(F)F.OCCC[n+]1ccccc1, the activity coefficient was 30.9 ± 2.1.
On the same count and under the same terms, in the case of `CC(=O)O` [acetic acid] + O=S(=O)([N-]S(=O)(=O)C(F)(F)F)C(F)(F)F.OCCC[n+]1ccccc1 it was 0.32 ± 0.031; in that of `CC(C)=O` [acetone] + O=S(=O)([N-]S(=O)(=O)C(F)(F)F)C(F)(F)F.OCCC[n+]1ccccc1, 0.453 ± 0.036; in that of `c1ccccc1` [benzene] + O=S(=O)([N-]S(=O)(=O)C(F)(F)F)C(F)(F)F.OCCC[n+]1ccccc1, 1.6 ± 0.11.
The same measure, in the same setting: for `CCCCO` [butan-1-ol] + O=S(=O)([N-]S(=O)(=O)C(F)(F)F)C(F)(F)F.OCCC[n+]1ccccc1 the value was 1.91 ± 0.13; for `C1CCCCCC1` [cycloheptane] + O=S(=O)([N-]S(=O)(=O)C(F)(F)F)C(F)(F)F.OCCC[n+]1ccccc1, 24.7 ± 1.7; for `C1CCCCC1` [cyclohexane] + O=S(=O)([N-]S(=O)(=O)C(F)(F)F)C(F)(F)F.OCCC[n+]1ccccc1, 17.9 ± 1.2.
In the case of `C1=CCCCC1` [cyclohexene] + O=S(=O)([N-]S(=O)(=O)C(F)(F)F)C(F)(F)F.OCCC[n+]1ccccc1, the activity coefficient turned out to be 9.31 ± 0.64.
Same read-out and setting: in the case of `C1CCCCCCC1` [cyclooctane] + O=S(=O)([N-]S(=O)(=O)C(F)(F)F)C(F)(F)F.OCCC[n+]1ccccc1 it was 34 ± 2.3.

Still in this data set, the particulars now being: 358.15 K; 101 kPa; Liquid; Chromatography; x1 = 0.
Turning to `Cc1ccccc1C` [1,2-dimethylbenzene] + O=S(=O)([N-]S(=O)(=O)C(F)(F)F)C(F)(F)F.OCCC[n+]1ccccc1, the activity coefficient was determined as 3.14 ± 0.21.
The same measure, in the same setting: in the case of `Cc1cccc(C)c1` [1,3-dimethylbenzene] + O=S(=O)([N-]S(=O)(=O)C(F)(F)F)C(F)(F)F.OCCC[n+]1ccccc1 it was 3.6 ± 0.25; in that of `Cc1ccc(C)cc1` [1,4-dimethylbenzene] + O=S(=O)([N-]S(=O)(=O)C(F)(F)F)C(F)(F)F.OCCC[n+]1ccccc1, 3.63 ± 0.25.
The same measure, in the same setting: in the case of `C1COCCO1` [1,4-dioxane] + O=S(=O)([N-]S(=O)(=O)C(F)(F)F)C(F)(F)F.OCCC[n+]1ccccc1 it was 0.621 ± 0.043; in that of `C=CCCCCCCCC` [1-decene] + O=S(=O)([N-]S(=O)(=O)C(F)(F)F)C(F)(F)F.OCCC[n+]1ccccc1, 86.6 ± 5.9; in that of `C=CCCCCC` [1-heptene] + O=S(=O)([N-]S(=O)(=O)C(F)(F)F)C(F)(F)F.OCCC[n+]1ccccc1, 25.2 ± 1.7.
Still for that read-out and setting: for `C#CCCCCC` [1-heptyne] + O=S(=O)([N-]S(=O)(=O)C(F)(F)F)C(F)(F)F.OCCC[n+]1ccccc1 the value was 8.74 ± 0.6; for `C#CCCCC` [1-hexyne] + O=S(=O)([N-]S(=O)(=O)C(F)(F)F)C(F)(F)F.OCCC[n+]1ccccc1, 5.8 ± 0.4.
Regarding `C#CCCCCCC` [1-octyne] + O=S(=O)([N-]S(=O)(=O)C(F)(F)F)C(F)(F)F.OCCC[n+]1ccccc1, the activity coefficient worked out at 13.2 ± 0.9.
As to `CC(C)CC(C)(C)C` [2,2,4-trimethylpentane] + O=S(=O)([N-]S(=O)(=O)C(F)(F)F)C(F)(F)F.OCCC[n+]1ccccc1, the activity coefficient was 51.4 ± 3.5.
